# Patent US11384078B2, “5,6-fused-bicyclic compounds and compositions for the treatment of parasitic diseases” (NOVARTIS AG, priority 2017, dated 2022)
# Where two headings read alike, the source gives them in different places.
# Tests used:
# Type in all cases: cell-based
# [1] = test system: Leishmania donovani axenic amastigote; test: In vitro assay for growth inhibition of Leishmania donovani axenic amastigote (Cell TiterGlo luminescence); conditions: Leishmania donovani, L. donovani axenic amastigotes in vitro; read-out: L. donovani amastigotes EC50
# In short: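 Compound-treated wells received 9600 axenic amastigotes in RPMI 1640-based medium at pH 5.5 (37 °C, 5% CO2). Growth measured as ATP luminescence (CellTiter-Glo) after 2-day incubation; DMSO and reference compounds served as controls.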
# [2] = test system: Trypanosoma brucei brucei (Lister 427) strain; test: Assay for growth inhibition against Trypanosoma brucei brucei (Cell TiterGlo ATP luminescence); conditions: T. brucei brucei (Lister 427), read-out: T. Brucei (HAT) EC50
# In short: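 Growth read-out is cellular ATP by CellTiter-Glo luminescence, measured 30 min after reagent addition, following 2-day incubation at 37 °C in CO2. Parasites (10,000/mL, HMI-9 plus 10% FBS and 10% serum plus) faced 10 threefold dilutions in duplicate; IC50 taken as 50% growth inhibition versus untreated.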
# [3] = test system: Trypanosoma cruzi amastigotes cultured in 3T3 fibroblast cells; test: Assay for growth inhibition of kinetoplastid parasite Trypanosoma cruzi (beta-galactosidase Tulahuen strain, CPRG readout); conditions: Trypanosoma cruzi, Fibroblast, T. cruzi amastigotes in 3T3 fibroblast cells; read-out: Buckner infectious T. cruzi EC50
# In short: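 3T3 fibroblasts (1,000 cells/well) plated overnight, treated with compound in DMSO, then infected with 10,000 Lac-Z-expressing Tulahuen trypomastigotes. After 6 days, 0.6 mM CPRG with 0.6% NP-40 added for 2 h at room temperature; absorbance gives relative intracellular amastigote numbers. Benznidazole and nifurtimox serve as positive controls.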
# [4] = test system: L. donovani HU3 strain in mouse peritoneal macrophages; test: Assay for inhibition of parasitemia of Leishmania donovani in mouse macrophages (SYBR Green nuclei count, high-content imaging); conditions: Leishmania donovani, Peritoneal macrophage, L. donovani in mouse peritoneal macrophages; read-out: L. donovani in Mouse Macrophages EC50
# In short: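 Parasite numbers were counted from SYBR Green-stained nuclei imaged by high-content microscopy after paraformaldehyde fixation and Triton permeabilization. Before this, compound was applied for 5 days at 37° C to BALB/c peritoneal macrophages (2×10^4/well) that had been exposed 24 h to 4×10^5 L. donovani HU3 amastigotes harvested from infected mouse spleens.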
SMILES,EC50 [1] [nM],EC50 ([2]; Trypanosoma brucei) [nM],EC50 [3] [nM],EC50 [4] [nM],EC50 [2] [nM]
"CC(C)CNc1cnc2nn(-c3cc(NC(=O)N4CC(F)C4)ccc3F)cc2c1 [Compound 198, 3-fluoro-N-(4-fluoro-3-{5-[(2-methylpropyl)amino]-2H-pyrazolo[3,4-b]pyridin-2-yl}phenyl)azetidine-1-carboxamide]",546,5,23,49,
"CCNc1cnc2nn(-c3cc(NC(=O)N4CC(F)C4)ccc3F)cc2c1 [Compound 199, N-{3-[5-(ethylamino)-2H-pyrazolo[3,4-b]pyridin-2-yl]-4-fluorophenyl}-3-fluoroazetidine-1-carboxamide]",502,5,24,21,
"CC(C)Nc1cnc2nn(-c3cc(NC(=O)N4CC(F)C4)ccc3F)cc2c1 [Compound 200, 3-fluoro-N-(4-fluoro-3-{5-[(propan-2-yl)amino]-2H-pyrazolo[3,4-b]pyridin-2-yl}phenyl)azetidine-1-carboxamide]",974,5,15,7,
"O=C(Nc1ccc(F)c(-n2cc3cc(N4CC5(CCO5)C4)cnc3n2)c1)N1CC(F)C1 [Compound 201, 3-fluoro-N-[4-fluoro-3-(5-{1-oxa-6-azaspiro[3.3]heptan-6-yl}-2H-pyrazolo[3,4-b]pyridin-2-yl)phenyl]azetidine-1-carboxamide]",192,5,20,4,
"O=C(Nc1ccc(F)c(-n2cc3cc(N4CC5(CCOC5)C4)cnc3n2)c1)N1CC(F)C1 [Compound 202, 3-fluoro-N-[4-fluoro-3-(5-{6-oxa-2-azaspiro[3.4]octan-2-yl}-2H-pyrazolo[3,4-b]pyridin-2-yl)phenyl]azetidine-1-carboxamide]",463,5,25,10,
"O=C(Nc1ccc(F)c(-n2cc3cc(N4CC5(CCOCC5)C4)cnc3n2)c1)N1CC(F)C1 [Compound 203, 3-fluoro-N-[4-fluoro-3-(5-{7-oxa-2-azaspiro[3.5]nonan-2-yl}-2H-pyrazolo[3,4-b]pyridin-2-yl)phenyl]azetidine-1-carboxamide]",490,5,20,9,
"O=C(Nc1ccc(F)c(-n2cc3cc(N4CC5C(C4)C5(F)F)cnc3n2)c1)N1CC(F)C1 (stereo not drawn) [Compound 204, N-[3-(5-{6,6-difluoro-3-azabicyclo[3.1.0]hexan-3-yl}-2H-pyrazolo[3,4-b]pyridin-2-yl)-4-fluorophenyl]-3-fluoroazetidine-1-carboxamide]",74,5,2,4,
"COC1CN(c2cnc3nn(-c4cc(NC(=O)N5CC(F)C5)ccc4F)cc3c2)C1 [Compound 205, 3-fluoro-N-{4-fluoro-3-[5-(3-methoxyazetidin-1-yl)-2H-pyrazolo[3,4-b]pyridin-2-yl]phenyl}azetidine-1-carboxamide]",197,5,15,11,
"N#Cc1ccc(C(=O)Nc2ccc(F)c(-n3cc4cc(-c5ccccn5)cnc4n3)c2)o1 [Compound 206, 5-cyano-N-{4-fluoro-3-[5-(pyridin-2-yl)-2H-pyrazolo[3,4-b]pyridin-2-yl]phenyl}furan-2-carboxamide]",2,5,1,13,
"CCOC1CC1C(=O)Nc1ccc(F)c(-n2cc3cc(C(C)C)cnc3n2)c1 (stereo not drawn) [Compound 207, 2-ethoxy-N-{4-fluoro-3-[5-(propan-2-yl)-2H-pyrazolo[3,4-b]pyridin-2-yl]phenyl}cyclopropane-1-carboxamide]",1830,1820,1270,2060,
"CC(C)c1cnc2nn(-c3cc(NC(=O)C4CC4(F)F)ccc3F)cc2c1 (stereo not drawn) [Compound 208, 2,2-difluoro-N-{4-fluoro-3-[5-(propan-2-yl)-2H-pyrazolo[3,4-b]pyridin-2-yl]phenyl}cyclopropane-1-carboxamide]",921,375,358,1920,
"CC(C)c1cnc2nn(-c3cc(NC(=O)C4(C(F)(F)F)CC4)ccc3F)cc2c1 [Compound 209, N-{4-fluoro-3-[5-(propan-2-yl)-2H-pyrazolo[3,4-b]pyridin-2-yl]phenyl}-1-(trifluoromethyl)cyclopropane-1-carboxamide]",25000,6540,5090,381,
"CC(C)c1cnc2nn(-c3cc(NC(=O)C4CC4C)ccc3F)cc2c1 (stereo not drawn) [Compound 211, N-{4-fluoro-3-[5-(propan-2-yl)-2H-pyrazolo[3,4-b]pyridin-2-yl]phenyl}-2-methylcyclopropane-1-carboxamide]",496,35,72,302,
"CC(C)c1cnc2nn(-c3cc(NC(=O)CC(F)(F)F)ccc3F)cc2c1 [Compound 212, 3,3,3-trifluoro-N-{4-fluoro-3-[5-(propan-2-yl)-2H-pyrazolo[3,4-b]pyridin-2-yl]phenyl}propanamide]",11300,2030,1750,8860,
"CC(C)c1cnc2nn(-c3cc(NC(=O)CCCC(F)(F)F)ccc3F)cc2c1 [Compound 214, 5,5,5-trifluoro-N-{4-fluoro-3-[5-(propan-2-yl)-2H-pyrazolo[3,4-b]pyridin-2-yl]phenyl}pentanamide]",4600,1060,1420,658,
"CC(C)c1cnc2nn(-c3cc(NC(=O)CCC4CC4)ccc3F)cc2c1 [Compound 215, 3-cyclopropyl-N-{4-fluoro-3-[5-(propan-2-yl)-2H-pyrazolo[3,4-b]pyridin-2-yl]phenyl}propanamide]",4700,947,738,2980,
"CC(C)c1cnc2nn(-c3cc(NC(=O)CC4CCC4)ccc3F)cc2c1 [Compound 216, 2-cyclobutyl-N-{4-fluoro-3-[5-(propan-2-yl)-2H-pyrazolo[3,4-b]pyridin-2-yl]phenyl}acetamide]",3700,620,435,4670,
"O=C(Nc1ccc(F)c(-n2cc3cc(-c4ccccn4)cnc3n2)c1)C1=CCC1 [Compound 218, N-{4-fluoro-3-[5-(pyridin-2-yl)-2H-pyrazolo[3,4-b]pyridin-2-yl]phenyl}cyclobut-1-ene-1-carboxamide]",4,3,38,212,
"C[C@@H]1CN(c2cnc3nn(-c4cc(NC(=O)N5CC(F)C5)ccc4F)cc3c2)C[C@H](C)O1 [Compound 230, N-(3-{5-[(2R,6S)-2,6-dimethylmorpholin-4-yl]-2H-pyrazolo[3,4-b]pyridin-2-yl]-4-fluorophenyl)-3-fluoroazetidine-1-carboxamide]",37,,47,22,5
"O=C(Nc1ccc(F)c(-n2cc3cc(N4CCC45COC5)cnc3n2)c1)N1CC(F)C1 [Compound 231, 3-fluoro-N-{4-fluoro-3-(5-{6-oxa-1-azaspiro[3.3]heptan-1-yl}-2H-pyrazolo[3,4-b]pyridin-2-yl)phenyl}azetidine-1-carboxamide]",34,,126,113,6
"COCC1CN(c2cnc3nn(-c4cc(NC(=O)N5CC(F)C5)ccc4F)cc3c2)C1 [Compound 232, 3-fluoro-N-(4-fluoro-3-{5-[3-(methoxymethyl)azetidin-1-yl]-2H-pyrazolo[3,4-b]pyridin-2-yl]phenyl)azetidine-1-carboxamide]",12,,12,10,5
"O=C(Nc1ccc(F)c(-n2cc3cc(N4CC5(CC5)C4)cnc3n2)c1)N1CC(F)C1 [Compound 233, N-[3-(5-{5-azaspiro[2.3]hexan-5-yl}-2H-pyrazolo[3,4-b]pyridin-2-yl)-4-fluorophenyl]-3-fluoroazetidine-1-carboxamide]",13,,5,10,4
"O=C(Nc1ccc(F)c(-n2cc3cc(N4C[C@@H](F)[C@H](F)C4)cnc3n2)c1)N1CC(F)C1 [Compound 234, N-(3-{5-[(3R,4R)-3,4-difluoropyrrolidin-1-yl]-2H-pyrazolo[3,4-b]pyridin-2-yl]-4-fluorophenyl)-3-fluoroazetidine-1-carboxamide]",27,,9,3,5
"O=C(Nc1ccc(F)c(-n2cc3cc(N4C5CCC4COC5)cnc3n2)c1)N1CC(F)C1 [Compound 235, 3-fluoro-N-[4-fluoro-3-(5-{3-oxa-8-azabicyclo[3.2.1]octan-8-yl}-2H-pyrazolo[3,4-b]pyridin-2-yl)phenyl}azetidine-1-carboxamide]",11,5,11,10,
